What was measured:
[1] = target: T1, GABAA receptor β3 subunit (α1β3 GABAAR) (Homo sapiens, UniProt P14867+P28472); assay: photoaffinity labeling with residue identification; format: binding
T1 sequence (P28472 26-473): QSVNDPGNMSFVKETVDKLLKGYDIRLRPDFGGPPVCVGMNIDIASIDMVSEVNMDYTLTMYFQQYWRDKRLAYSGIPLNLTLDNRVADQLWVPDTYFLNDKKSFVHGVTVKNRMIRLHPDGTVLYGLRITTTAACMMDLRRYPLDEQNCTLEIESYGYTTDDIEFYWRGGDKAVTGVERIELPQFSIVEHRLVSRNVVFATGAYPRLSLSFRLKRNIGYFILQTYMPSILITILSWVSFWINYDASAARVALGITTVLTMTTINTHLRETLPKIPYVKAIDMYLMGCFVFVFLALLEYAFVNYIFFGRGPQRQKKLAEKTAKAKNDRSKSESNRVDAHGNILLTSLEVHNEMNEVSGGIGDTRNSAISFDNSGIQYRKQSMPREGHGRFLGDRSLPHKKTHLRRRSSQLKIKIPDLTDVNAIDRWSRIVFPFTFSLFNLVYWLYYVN
T1 sequence (P14867 28-456): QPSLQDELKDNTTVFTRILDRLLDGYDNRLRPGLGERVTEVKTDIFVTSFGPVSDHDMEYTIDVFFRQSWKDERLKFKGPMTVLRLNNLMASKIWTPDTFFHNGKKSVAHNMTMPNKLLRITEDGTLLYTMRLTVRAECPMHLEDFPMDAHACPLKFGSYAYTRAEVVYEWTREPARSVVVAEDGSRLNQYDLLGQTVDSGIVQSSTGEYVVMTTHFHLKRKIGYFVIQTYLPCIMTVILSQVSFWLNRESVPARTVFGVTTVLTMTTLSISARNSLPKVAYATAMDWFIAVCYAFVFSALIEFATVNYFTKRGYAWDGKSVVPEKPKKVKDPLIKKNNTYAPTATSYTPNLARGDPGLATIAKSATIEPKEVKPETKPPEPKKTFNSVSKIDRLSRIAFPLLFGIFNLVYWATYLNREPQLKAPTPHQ

[2] = target: T2, GABAA receptor α1 subunit (α1β3 GABAAR) (Homo sapiens, UniProt P14867+P28472); assay: photoaffinity labeling with residue identification; format: binding
T2 sequence (P14867 28-456): T1 sequence (P14867 28-456)
T2 sequence (P28472 26-473): T1 sequence (P28472 26-473)

[3] = target: T1, GABAA receptor β3 subunit (α1β3 GABAAR); assay: [3H]muscimol radioligand filtration binding to purified receptor; conditions: cited from earlier work

Structure (SMILES)	EC50 [1] [nM]	EC50 [2] [nM]	Kd [3] [nM]
CC(c1ccccc1)n1cncc1C(=O)OCCC1(C)N=N1 (stereo not drawn) [azietomidate, 2-(3-methyl-3H-diaziren-3-yl) ethyl 1-(1-phenylethyl)-1H-imidazole-5-carboxylate]	2700 ± 1000	2700 ± 1000	–
NCc1cc(=O)[nH]o1 [muscimol, 3-hydroxy-5-aminomethylisoxazole]	–	–	10

From PMC3274767 (2012)
